Measurements taken from patent publication US10512656B2, “Compositions and methods for the treatment of lysosomal storage disorders and disorders characterized by lysosomal dysfunction” (Baylor College of Medicine, priority 2016, dated 2019).

Key:
[1] = biological target: TFEB-3×FLAG (transcription factor EB, wild type, Flag-tagged) (UniProt P19484)
[2] = system: TFEB; test: TFEB nuclear translocation in cells expressing constitutively active Akt (Akt-DD); format: cell-based, human; conditions: 24 h
Protocol: FIG. 16. Trehalose controls Akt regulation of TFEB in a GSK3β-independent manner. (a) HeLa cells were treated with trehalose for 24 h or left untreated. Immunoblot analyses were used to evaluate levels of GSK33 and its phosphorylation status. GAPDH was used as a loading control. (b) HeLa cells were cotransfected with TFEB-3×Flag and constitutively active GSK3β (CA-GSK3β), treated with trehalose or MK2206 for 24 h, and examined by immunofluorescence labeling for Flag (red) and GSK3β (green). Scale bar is 20 […]. (c) HeLa cells were cotransfected with TFEB-3×Flag and constitutively active Akt (Akt-DD), treated with the GSK3β inhibitor CHIR99021 for 24 h, and examined by immunofluorescence labeling for Flag (red) and Akt (green). Scale bar is 20 μm.

[3] = system: Batten mice (Cln3 KO mice); test: Astrogliosis (GFAP-positive cells); format: in vivo, mouse
Protocol: (§1) Batten mice (Cln3 KO mice) were administered trehalose, a low dose of miglustat, a high dose of miglustat, or a combination of trehalose and miglustat. Two controls were used in these experiments: (1) untreated Batten mice, and (2) untreated wild type mice. Neuronal cell death (measured by the density (no. of cells/area) of CAS-3 positive cells), neuroinflammation (measured by the number of GFAP-positive astrocyte cells in the neuronal system), and macrophage infiltration into the nervous system (measured by the % area of CD68) were measured.

[4] = system: Batten mice (Cln3 KO mice); test: Neuronal cell death (density of CAS-3 positive cells); format: in vivo, mouse
Protocol: as §1

[5] = system: Batten mice (Cln3 KO mice); test: Macrophage infiltration (% area of CD68); format: in vivo, mouse
Protocol: as §1

[6] = system: TFEB; test: TFEB nuclear translocation in HeLa/TFEB cells; format: cell-based, human; conditions: confocal microscopy and subcellular fractionation
Protocol: Control (Coriell Institute, USA) and JNCL fibroblasts (Gaslini Institute, Italy) were grown in DMEM (1:1, HyClone) supplemented with 10% heat-inactivated fetal bovine serum (FBS, Atlanta Biologicals), 2 mM L-glutamine, 100 U/ml penicillin and […] streptomycin (Invitrogen). HeLa cells were incubated for 2 h with LY294002 ([…], Cell Signaling), Torin 1 (300 nM, Cayman Chemical) or for 24 h with trehalose (100 mM, Sigma), rapamycin (300 nM, Sigma), MK2206 (1 μM, Selleckchem), U0126 ([…], Tocris) and dialyzed serum (GE Healthcare Life Sciences) for 30 min. For immunofluorescence assay, cells were grown on coverslips in 24-well plates. After the treatment, cells were washed with PBS and fixed with methanol for 10 min. Cells were then blocked with blocking reagent (0.1% saponin, 10% bovine serum in PBS) for 1 h and incubated with appropriate primary antibody(s) (1:100) for 3 h at room temperature. After three washes with PBS, the cells were incubated with appropriate secondary antibodies (1:500) for 1 h at room temperature. Coverslips were then mounted with vectashield containing 4,6-diamidino-2-phenylindole (H-1200) for imaging via confocal microscopy. Cell pellets were resuspended in lysis buffer (10 mM Hepes pH 7.9, 10 mM KCl, 0.1 mM EDTA and 0.4% Nonidet P40) with inhibitors by pipetting and kept in ice for 30 min. After 1 min of spin at full speed, the supernatant was collected as cytosolic fraction. The pellet was washed twice with lysis buffer and resuspended with nuclear buffer (20 mM Hepes pH 7.9, 0.4M NaCl and 1 mM EDTA) containing phosphatases and proteases inhibitors. After 15 min of vigorous shaking on an Eppendorf shaker, the pellet was spun down at full speed for 10 min. The supernatant was used as the nuclear fraction.

[7] = all miglustat-treated Batten mice
[8] = all miglustat-treated mice, P<0.05

Sequence of TFEB-3×FLAG (transcription factor EB, wild type, Flag-tagged) (P19484 whole entry): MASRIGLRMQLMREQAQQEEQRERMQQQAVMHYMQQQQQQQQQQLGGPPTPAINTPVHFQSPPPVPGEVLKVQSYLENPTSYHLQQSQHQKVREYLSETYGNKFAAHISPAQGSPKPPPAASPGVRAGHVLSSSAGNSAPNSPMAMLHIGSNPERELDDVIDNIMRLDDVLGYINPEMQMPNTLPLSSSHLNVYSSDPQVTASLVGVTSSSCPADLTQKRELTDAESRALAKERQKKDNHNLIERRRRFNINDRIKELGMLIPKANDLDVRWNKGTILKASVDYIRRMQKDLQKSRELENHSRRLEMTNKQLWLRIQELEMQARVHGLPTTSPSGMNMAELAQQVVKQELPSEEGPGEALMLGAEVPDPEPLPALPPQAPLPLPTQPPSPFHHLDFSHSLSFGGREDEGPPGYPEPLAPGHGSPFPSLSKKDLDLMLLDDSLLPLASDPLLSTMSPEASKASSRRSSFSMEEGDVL

## purified, active AKT1 enzyme (SignalChem)
[1]
  in vitro Akt kinase assay ([32P]ATP, autoradiography): Akt phosphorylates purified TFEB

## Cc1c[nH]c(-c2cnc(NCCNc3ccc(C#N)cn3)nc2-c2ccc(Cl)cc2Cl)n1 [CHIR-99021]
[2]
  TFEB nuclear translocation: promoted nuclear translocation of TFEB

## CCCCN1C[C@H](O)[C@@H](O)[C@H](O)[C@H]1CO [miglustat]
[3]; [7]
  astrogliosis vs wild-type mice: indistinguishable from the wild-type mice
[3]; [8]
  GFAP-positive cells vs untreated Batten mice: less GFAP-positive cells
[4]; [7]
  neuronal cell death vs wild-type mice: indistinguishable from the wild-type mice
[4]; low dose, high dose, or combined with trehalose, P<0.05
  neuronal cell death vs untreated Batten mice: less neuronal cell death
[5]; [7]
  macrophage infiltration vs wild-type mice: indistinguishable from the wild-type mice
[5]; [8]
  macrophage infiltration vs untreated Batten mice: less macrophage infiltration

## CCC(=O)N1CCN(c2ccc(-n3c(=O)ccc4cnc5ccc(-c6cnc7ccccc7c6)cc5c43)cc2C(F)(F)F)CC1 [Torin 1]
[6]
  TFEB nuclear translocation on kinase inhibitors: TFEB nuclear translocation
